Values quoted from earlier work, collected in US10874098B2, “Organ preservation composition” (TX Innovations B.V., priority 2015, dated 2020).

What was measured:
[1] = system: lung ischemia-reperfusion injury after lung transplantation; settings: intraperitoneal treatment of the donor animal three days before harvesting

| Molecule | stability in aqueous solutions | preservation of the transplanted lung [1] |
| --- | --- | --- |
| C[C@H](N)C(=O)O [L-alanine] | spontaneously degrade | – |
| L-alanine-L-glutamine | more stable in aqueous solutions and does not spontaneously degrade | – |
| NCCS(=O)(=O)O [taurine] | – | preservation of the transplanted lung in respect to histopathological and biochemical findings |
